Source: patent publication US20220339100A1, “THERMOSENSITIVE MODIFIED CHITIN HYDROGEL LOCAL ANESTHETIC-LOADED SUSTAINED-RELEASE ANALGESIA SYSTEM, PREPARATION METHOD AND USE” (Wuhan University, priority 2021, published 2022)
Counter-ions that a name gives are not always drawn.

Tests used:
sciatic nerve of SD rats = experiment: ultrasound-guided sciatic nerve block model, sensory block by hot plate method; assay type: in vivo, rat; settings: 0.5 mL around sciatic nerve
Description: In order to evaluate the in-vivo analgesic effect of the drug-loaded sustained-release system, an ultrasound-guided sciatic nerve block model was used. Various sustained-release injection formulations containing ropivacaine were injected around the sciatic nerve of the right hind limb of SD rats under the guidance of ultrasound, and the nerve blocking effect was observed. The rats were anesthetized with 2% isoflurane and placed in a prone position. […] Then, the sensory and motor block of the right hind limbs of the rats were evaluated by a hot plate method and motor block 4-point method, respectively. […]
Operation with hot plate method: the rats were placed on a preheated metal surface (55±0.5° C.), which was surrounded by a cylindrical Plexiglas wall (20 cm high and 28 cm in diameter) to limit the movement of the rats. […] This time was recorded as the basic thermal latency (baseline) time of rats (tested 2 days before the beginning of the experiment), which was generally about 3-5 s, and the rats with too short or too long baseline time were excluded. In order to prevent tissue injury, if the rats still have no pain response after 20 s, the rats were taken out and the time was recorded as 20 s. […] The test data were expressed as percentage of maximum possible effect (MPE %) with the calculation formula as follows: […]

[1] = tested on: human neuroblastoma cell lines (SH-SY5Y); assay type: cell-based; settings: 24 h, 5 mM
Description: An in-vitro cytotoxicity test was performed on a ropivacaine-containing drug-loaded sustained-release system by using neuroblastoma cell line (SH-SY5Y) cells. Ropivacaine hydrochloride was dissolved into a PBS buffer to prepare a 10 mM ropivacaine solution, and the ropivacaine solution was diluted with a cell culture medium to prepare a cell culture medium with a concentration gradient of 0.5-5 mM in ropivacaine group; cell culture medium solutions containing HPCH2% and HA0.5% as well as a ropivacaine concentration of 10 mM were prepared at a low temperature and gelled at 37° C., and then a cell culture medium containing corresponding gel sustained-release systems and a ropivacaine concentration of 10 mM was prepared. SH-SY5Y cells were inoculated in a 96 well plate at a 10^4/mL cell density and normally cultured in a constant-temperature incubator for 24 h. Then, the above cell culture mediums containing pure drugs and drug gels were respectively added to be cultured for 24 h. The relative living cell numbers were tested by a Cell Counting Kit 8 (CCK-8) assay (FIG. 2).

[2] = in-vitro cumulative drug release in PBS (dialysis bag, UV 263 nm); assay type: physicochemical; settings: within 6 hours, 37° C., 100 rpm, same drug content as 2.0% system
Description: 1 ml of the above dispersion (suspension) was sucked with a precision syringe at 4° C. and put into a dialysis bag (molecular weight cut off: 8000-14000 Da), then the dialysis bag was put into a centrifuge tube which was equipped with 30 ml of PBS solution and placed in a 37° C. constant-temperature water-bath shaker that was vibrated at 100 rpm, samples were taken at different time. 2 ml of PBS solution was taken every time to be used as a sample supplemented with 2 mL of fresh PBS solution, the taken sample was analyzed by ultraviolet-visible spectrophotometry, the PBS solution was used as blank control, and a wavelength was detected as 263 nm. According to a standard curve of ropivacaine, the drug concentration of ropivacaine was calculated and a cumulative release curve was plotted. Three samples in each group were set for repetition. FIG. 1 is an in-vitro cumulative release curve of 2.0% R-HPCH-HA hydrogel sustained-release system represented by a 2.0% ropivacaine hydrochloride-loaded, wherein pure drugs (R) with the same drug content and an HPCH carrier (no hyaluronic acid, R-HPCH group) alone with the same drug content are used as control group. […] Thus, the injectable hydrogel drug delivery system comprising auxiliary component hyaluronic acid is benefit to the long-lasting local analgesia.

- cumulative release rate of ropivacaine [2]: exceeds 80%
SMILES: CCCN1CCCC[C@H]1C(=O)Nc1c(C)cccc1C [ropivacaine, ropivacaine hydrochloride]
- time after which MPE value came back to the normal baseline (sciatic nerve of SD rats): 6 h
- cell viability [1]: 37.2%
